Assay results: the kinase profiling compilation of Christmann-Franck et al. (2016)

How the values were obtained:
Assay in all cases: radiometric filter-binding kinase assay
[1] = test system: AKT2 (human), P31751 [S474D]
CAMKK2 (human) = CAMKK2 (human) (UniProt Q96RR4)
CHEK1 (human) = CHEK1 (human) (UniProt O14757)
CLK2 (human) = CLK2 (human) (UniProt P49760)
CSNK1D (human) = CSNK1D (human) (UniProt P48730)
DYRK1A (human) = DYRK1A (human) (UniProt Q13627)
EPHA4 (human) = EPHA4 (human) (UniProt P54764)
HIPK3 (human) = HIPK3 (human) (UniProt Q9H422)
Chain of HIPK3 (human) (Q9H422 whole entry, looked up): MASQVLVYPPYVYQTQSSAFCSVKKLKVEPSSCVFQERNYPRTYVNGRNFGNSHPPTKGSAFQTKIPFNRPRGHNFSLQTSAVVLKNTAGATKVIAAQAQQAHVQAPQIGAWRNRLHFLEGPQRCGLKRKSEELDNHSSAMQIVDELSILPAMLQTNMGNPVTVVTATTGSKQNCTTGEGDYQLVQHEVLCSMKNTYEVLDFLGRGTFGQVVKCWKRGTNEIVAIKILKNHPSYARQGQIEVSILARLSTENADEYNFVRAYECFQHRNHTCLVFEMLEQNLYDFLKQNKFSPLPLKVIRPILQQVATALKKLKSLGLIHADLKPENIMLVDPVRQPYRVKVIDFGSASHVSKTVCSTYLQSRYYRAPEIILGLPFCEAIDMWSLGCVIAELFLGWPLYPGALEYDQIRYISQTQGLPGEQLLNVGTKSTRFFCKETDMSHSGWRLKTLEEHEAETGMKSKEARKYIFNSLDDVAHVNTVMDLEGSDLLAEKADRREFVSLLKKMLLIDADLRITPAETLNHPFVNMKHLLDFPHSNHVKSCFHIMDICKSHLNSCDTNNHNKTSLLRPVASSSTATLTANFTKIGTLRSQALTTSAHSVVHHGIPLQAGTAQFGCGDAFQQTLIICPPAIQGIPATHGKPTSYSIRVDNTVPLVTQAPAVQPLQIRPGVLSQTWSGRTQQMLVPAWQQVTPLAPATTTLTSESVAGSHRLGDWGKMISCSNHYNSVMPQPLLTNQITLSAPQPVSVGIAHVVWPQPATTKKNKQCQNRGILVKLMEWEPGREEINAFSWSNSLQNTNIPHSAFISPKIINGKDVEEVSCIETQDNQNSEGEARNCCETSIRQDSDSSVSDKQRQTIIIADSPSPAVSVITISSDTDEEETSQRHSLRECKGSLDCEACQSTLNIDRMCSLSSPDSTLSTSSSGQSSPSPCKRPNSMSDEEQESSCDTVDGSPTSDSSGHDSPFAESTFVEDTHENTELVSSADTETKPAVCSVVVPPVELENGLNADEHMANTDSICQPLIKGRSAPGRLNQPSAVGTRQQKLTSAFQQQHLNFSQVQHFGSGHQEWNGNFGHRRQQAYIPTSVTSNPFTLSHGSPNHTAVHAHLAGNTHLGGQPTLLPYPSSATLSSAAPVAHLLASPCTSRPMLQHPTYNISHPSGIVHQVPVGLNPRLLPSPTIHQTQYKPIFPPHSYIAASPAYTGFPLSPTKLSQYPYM

IGF1R (human) = IGF1R (human) (UniProt P08069)
Chain of IGF1R (human) (P08069 whole entry, looked up): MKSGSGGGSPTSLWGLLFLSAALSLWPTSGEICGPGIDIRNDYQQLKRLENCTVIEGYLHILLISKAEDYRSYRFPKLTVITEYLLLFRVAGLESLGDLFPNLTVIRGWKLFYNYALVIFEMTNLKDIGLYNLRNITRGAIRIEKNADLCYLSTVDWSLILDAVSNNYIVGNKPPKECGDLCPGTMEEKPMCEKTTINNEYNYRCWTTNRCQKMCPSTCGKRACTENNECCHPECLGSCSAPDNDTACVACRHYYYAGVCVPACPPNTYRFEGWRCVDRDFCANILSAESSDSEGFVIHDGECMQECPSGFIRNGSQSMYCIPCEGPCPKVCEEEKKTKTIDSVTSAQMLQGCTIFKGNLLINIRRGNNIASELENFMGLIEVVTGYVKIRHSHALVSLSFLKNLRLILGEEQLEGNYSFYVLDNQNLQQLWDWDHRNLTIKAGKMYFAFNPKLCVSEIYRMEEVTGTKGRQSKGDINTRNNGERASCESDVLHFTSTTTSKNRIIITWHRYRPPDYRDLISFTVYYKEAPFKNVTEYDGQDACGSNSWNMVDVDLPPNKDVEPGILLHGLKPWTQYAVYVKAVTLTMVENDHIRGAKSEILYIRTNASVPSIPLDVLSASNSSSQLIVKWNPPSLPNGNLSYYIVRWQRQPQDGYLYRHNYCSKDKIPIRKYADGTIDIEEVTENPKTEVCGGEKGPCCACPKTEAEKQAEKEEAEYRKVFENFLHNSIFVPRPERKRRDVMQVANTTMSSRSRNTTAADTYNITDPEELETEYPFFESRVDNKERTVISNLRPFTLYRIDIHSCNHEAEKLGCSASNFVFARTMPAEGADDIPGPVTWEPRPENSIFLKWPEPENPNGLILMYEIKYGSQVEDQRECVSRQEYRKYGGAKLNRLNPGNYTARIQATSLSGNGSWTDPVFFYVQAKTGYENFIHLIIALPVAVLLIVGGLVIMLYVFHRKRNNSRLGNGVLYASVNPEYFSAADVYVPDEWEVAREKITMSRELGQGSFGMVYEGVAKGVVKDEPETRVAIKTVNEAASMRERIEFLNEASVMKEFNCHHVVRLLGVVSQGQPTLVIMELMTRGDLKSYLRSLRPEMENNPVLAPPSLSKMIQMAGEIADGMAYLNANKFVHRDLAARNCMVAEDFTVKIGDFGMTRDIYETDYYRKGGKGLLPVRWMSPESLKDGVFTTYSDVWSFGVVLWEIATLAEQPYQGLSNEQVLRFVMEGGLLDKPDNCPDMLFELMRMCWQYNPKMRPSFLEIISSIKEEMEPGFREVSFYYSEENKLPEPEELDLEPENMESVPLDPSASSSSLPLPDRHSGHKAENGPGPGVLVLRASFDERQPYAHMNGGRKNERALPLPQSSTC

IKBKE (human) = IKBKE (human) (UniProt Q14164)
IRAK4 (human) = IRAK4 (human) (UniProt Q9NWZ3)
MAP3K7 TAB1 (human) = MAP3K7 TAB1 (human) (UniProt Q15750+O43318)
MAPK12 (human) = MAPK12 (human) (UniProt P53778)
Chain of MAPK12 (human) (P53778 whole entry, looked up): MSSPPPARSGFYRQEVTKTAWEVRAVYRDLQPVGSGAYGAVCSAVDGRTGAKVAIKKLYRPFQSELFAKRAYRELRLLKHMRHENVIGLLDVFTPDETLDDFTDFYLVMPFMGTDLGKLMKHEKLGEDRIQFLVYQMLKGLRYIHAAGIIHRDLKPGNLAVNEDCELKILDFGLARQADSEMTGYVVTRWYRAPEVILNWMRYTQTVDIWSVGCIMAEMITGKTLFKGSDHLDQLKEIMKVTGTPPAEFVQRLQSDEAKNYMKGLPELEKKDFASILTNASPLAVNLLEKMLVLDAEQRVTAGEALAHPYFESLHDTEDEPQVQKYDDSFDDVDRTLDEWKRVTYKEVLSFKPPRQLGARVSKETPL

MAPK14 (human) = MAPK14 (human) (UniProt Q16539)
Chain of MAPK14 (human) (Q16539 whole entry, looked up): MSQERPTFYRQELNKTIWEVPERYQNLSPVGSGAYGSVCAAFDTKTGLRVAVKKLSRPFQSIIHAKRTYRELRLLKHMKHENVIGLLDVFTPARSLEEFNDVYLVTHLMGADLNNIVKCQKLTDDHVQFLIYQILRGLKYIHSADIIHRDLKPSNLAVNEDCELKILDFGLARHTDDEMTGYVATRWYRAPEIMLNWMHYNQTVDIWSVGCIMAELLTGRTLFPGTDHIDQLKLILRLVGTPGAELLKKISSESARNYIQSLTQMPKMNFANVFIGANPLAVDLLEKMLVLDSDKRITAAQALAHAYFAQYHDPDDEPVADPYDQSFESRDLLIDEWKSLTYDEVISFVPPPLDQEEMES

MAPK15 (human) = MAPK15 (human) (UniProt Q8TD08)
MAPK3 (human) = MAPK3 (human) (UniProt P27361)
MAPKAPK2 (human) = MAPKAPK2 (human) (UniProt P49137)
MARK1 (human) = MARK1 (human) (UniProt Q9P0L2)
MARK2 (human) = MARK2 (human) (UniProt Q7KZI7)
MST4 (human) = MST4 (human) (UniProt Q9P289)
NEK2 (human) = NEK2 (human) (UniProt P51955)
NEK6 (human) = NEK6 (human) (UniProt Q9HC98)
[2] = test system: PAK2 (human), Q13177 [T402E]
PAK4 (human) = PAK4 (human) (UniProt O96013)
PAK6 (human) = PAK6 (human) (UniProt Q9NQU5)
Chain of PAK6 (human) (Q9NQU5 whole entry, looked up): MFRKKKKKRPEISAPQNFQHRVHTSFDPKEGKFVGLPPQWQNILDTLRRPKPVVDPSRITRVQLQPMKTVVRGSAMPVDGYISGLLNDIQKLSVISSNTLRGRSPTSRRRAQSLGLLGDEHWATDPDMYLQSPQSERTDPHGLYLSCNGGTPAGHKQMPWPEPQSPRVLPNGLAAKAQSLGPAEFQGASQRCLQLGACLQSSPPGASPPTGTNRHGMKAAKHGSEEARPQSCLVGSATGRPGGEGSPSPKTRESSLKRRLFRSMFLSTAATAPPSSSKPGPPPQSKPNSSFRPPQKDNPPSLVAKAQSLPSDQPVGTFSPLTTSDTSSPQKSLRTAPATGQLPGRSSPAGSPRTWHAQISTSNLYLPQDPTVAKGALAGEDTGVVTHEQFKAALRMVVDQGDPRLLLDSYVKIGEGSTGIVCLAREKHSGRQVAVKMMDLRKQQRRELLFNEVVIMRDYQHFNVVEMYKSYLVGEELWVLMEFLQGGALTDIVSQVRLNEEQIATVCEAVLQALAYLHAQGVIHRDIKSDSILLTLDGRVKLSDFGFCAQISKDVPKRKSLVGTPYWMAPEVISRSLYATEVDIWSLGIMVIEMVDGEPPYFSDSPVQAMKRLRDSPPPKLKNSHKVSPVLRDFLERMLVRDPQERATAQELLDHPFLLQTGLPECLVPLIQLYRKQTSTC

PAK7 (human) = PAK7 (human) (UniProt Q9P286)
PIM2 (human) = PIM2 (human) (UniProt Q9P1W9)
PIM3 (human) = PIM3 (human) (UniProt Q86V86)
PKN2 (human) = PKN2 (human) (UniProt Q16513)
Chain of PKN2 (human) (Q16513 whole entry, looked up): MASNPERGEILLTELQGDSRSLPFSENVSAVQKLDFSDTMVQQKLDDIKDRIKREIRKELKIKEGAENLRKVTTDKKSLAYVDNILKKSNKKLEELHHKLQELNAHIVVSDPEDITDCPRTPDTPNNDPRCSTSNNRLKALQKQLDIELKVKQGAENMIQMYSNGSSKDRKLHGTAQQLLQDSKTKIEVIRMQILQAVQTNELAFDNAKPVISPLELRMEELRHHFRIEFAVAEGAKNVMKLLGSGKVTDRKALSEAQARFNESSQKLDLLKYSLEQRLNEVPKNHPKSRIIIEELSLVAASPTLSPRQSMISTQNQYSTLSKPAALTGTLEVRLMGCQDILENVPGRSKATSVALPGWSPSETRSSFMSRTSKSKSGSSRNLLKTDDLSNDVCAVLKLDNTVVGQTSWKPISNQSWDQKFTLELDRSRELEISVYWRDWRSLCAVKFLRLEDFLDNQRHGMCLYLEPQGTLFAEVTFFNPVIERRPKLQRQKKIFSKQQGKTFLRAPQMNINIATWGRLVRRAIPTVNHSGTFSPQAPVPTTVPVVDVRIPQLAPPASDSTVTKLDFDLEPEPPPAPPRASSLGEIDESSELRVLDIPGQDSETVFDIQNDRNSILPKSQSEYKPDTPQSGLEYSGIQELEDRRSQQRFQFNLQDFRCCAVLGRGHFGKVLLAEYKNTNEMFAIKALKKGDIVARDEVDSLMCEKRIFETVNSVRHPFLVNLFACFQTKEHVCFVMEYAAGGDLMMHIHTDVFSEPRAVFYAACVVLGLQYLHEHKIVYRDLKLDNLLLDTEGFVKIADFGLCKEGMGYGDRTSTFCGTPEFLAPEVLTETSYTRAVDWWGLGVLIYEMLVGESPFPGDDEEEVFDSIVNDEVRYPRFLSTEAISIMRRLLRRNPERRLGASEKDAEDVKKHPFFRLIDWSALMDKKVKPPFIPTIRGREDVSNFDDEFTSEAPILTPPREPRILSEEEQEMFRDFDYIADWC

PLK1 (human) = PLK1 (human) (UniProt P53350)
RIPK2 (human) = RIPK2 (human) (UniProt O43353)
RPS6KA3 KD1 KD2 (human) = RPS6KA3 KD1 KD2 (human) (UniProt P51812)
RPS6KA5 KD1 KD2 (human) = RPS6KA5 KD1 KD2 (human) (UniProt O75582)
[3] = test system: SGK1 (human), O00141 [S422D]
SRPK1 (human) = SRPK1 (human) (UniProt Q96SB4)

In the case of `O=C(NCCCNc1nc(Nc2cccc(CN3CCOCC3)c2)ncc1C1CC1)C1CCC1`, the residual activity ([1]; compound 0.1 µM) is reported as 99%, the residual activity ([1]; compound 1.0 µM) is reported as 108% and the residual activity (CAMKK2 (human); compound 0.1 µM) is reported as 58%. The residual activity (CAMKK2 (human); compound 1.0 µM) was 21%, the residual activity (CHEK1 (human); compound 0.1 µM) was 93% and the residual activity (CHEK1 (human); compound 1.0 µM) was 57%. The residual activity (CLK2 (human); compound 0.1 µM) was 63%, the residual activity (CLK2 (human); compound 1.0 µM) was 21% and the residual activity (CSNK1D (human); compound 0.1 µM) was 99%. It also gave a residual activity (CSNK1D (human); compound 1.0 µM) of 66%, a residual activity (DYRK1A (human); compound 0.1 µM) of 99% and a residual activity (DYRK1A (human); compound 1.0 µM) of 106%. The residual activity (EPHA4 (human); compound 0.1 µM) was 103%, the residual activity (EPHA4 (human); compound 1.0 µM) was 114% and the residual activity (HIPK3 (human); compound 0.1 µM) was 91%. For the same compound, the residual activity (HIPK3 (human); compound 1.0 µM) was 108%, the residual activity (IGF1R (human); compound 0.1 µM) was 90% and the residual activity (IGF1R (human); compound 1.0 µM) was 105%. The residual activity (IKBKE (human); compound 0.1 µM) was 34%, the residual activity (IKBKE (human); compound 1.0 µM) was 23% and the residual activity (IRAK4 (human); compound 0.1 µM) was 95%. For the same compound, the residual activity (IRAK4 (human); compound 1.0 µM) was 83%, the residual activity (MAP3K7 TAB1 (human); compound 0.1 µM) was 96% and the residual activity (MAP3K7 TAB1 (human); compound 1.0 µM) was 57%. The residual activity (MAPK12 (human); compound 0.1 µM) was 88%, the residual activity (MAPK12 (human); compound 1.0 µM) was 85% and the residual activity (MAPK14 (human); compound 0.1 µM) was 100%. For the same compound, the residual activity (MAPK14 (human); compound 1.0 µM) was 107%, the residual activity (MAPK15 (human); compound 0.1 µM) was 81% and the residual activity (MAPK15 (human); compound 1.0 µM) was 34%. The residual activity (MAPK3 (human); compound 0.1 µM) was 105%, the residual activity (MAPK3 (human); compound 1.0 µM) was 112% and the residual activity (MAPKAPK2 (human); compound 0.1 µM) was 106%. It also gave a residual activity (MAPKAPK2 (human); compound 1.0 µM) of 114%, a residual activity (MARK1 (human); compound 0.1 µM) of 16% and a residual activity (MARK1 (human); compound 1.0 µM) of 9%. It also gave a residual activity (MARK2 (human); compound 0.1 µM) of 27%, a residual activity (MARK2 (human); compound 1.0 µM) of 10% and a residual activity (MST4 (human); compound 0.1 µM) of 87%. It also gave a residual activity (MST4 (human); compound 1.0 µM) of 94%, a residual activity (NEK2 (human); compound 0.1 µM) of 107% and a residual activity (NEK2 (human); compound 1.0 µM) of 97%. It also gave a residual activity (NEK6 (human); compound 0.1 µM) of 94%, a residual activity (NEK6 (human); compound 1.0 µM) of 90% and a residual activity ([2]; compound 0.1 µM) of 101%. For the same compound, the residual activity ([2]; compound 1.0 µM) was 92%, the residual activity (PAK4 (human); compound 0.1 µM) was 100% and the residual activity (PAK4 (human); compound 1.0 µM) was 79%. The residual activity (PAK6 (human); compound 0.1 µM) was 87%, the residual activity (PAK6 (human); compound 1.0 µM) was 84% and the residual activity (PAK7 (human); compound 0.1 µM) was 95%. For the same compound, the residual activity (PAK7 (human); compound 1.0 µM) was 88%, the residual activity (PIM2 (human); compound 0.1 µM) was 94% and the residual activity (PIM2 (human); compound 1.0 µM) was 85%. The residual activity (PIM3 (human); compound 0.1 µM) was 104%, the residual activity (PIM3 (human); compound 1.0 µM) was 111% and the residual activity (PKN2 (human); compound 0.1 µM) was 87%. The residual activity (PKN2 (human); compound 1.0 µM) was 66%, the residual activity (PLK1 (human); compound 0.1 µM) was 89% and the residual activity (PLK1 (human); compound 1.0 µM) was 98%. The residual activity (RIPK2 (human); compound 0.1 µM) was 109%, the residual activity (RIPK2 (human); compound 1.0 µM) was 112% and the residual activity (RPS6KA3 KD1 KD2 (human); compound 0.1 µM) was 71%. It also gave a residual activity (RPS6KA3 KD1 KD2 (human); compound 1.0 µM) of 56%, a residual activity (RPS6KA5 KD1 KD2 (human); compound 0.1 µM) of 98% and a residual activity (RPS6KA5 KD1 KD2 (human); compound 1.0 µM) of 68%. The residual activity ([3]; compound 0.1 µM) was 81%, the residual activity ([3]; compound 1.0 µM) was 94% and the residual activity (SRPK1 (human); compound 0.1 µM) was 86%. The residual activity (SRPK1 (human); compound 1.0 µM) was 101%.
